Test results published in publication PMC7029851, “Antibacterial activity of novel dual bacterial DNA type II topoisomerase inhibitors” (PLoS ONE, 2020).
Read-outs that look alike come from different tables or passages of the source.

What was measured:
[1] = tested on: A. baumannii APV00473; assay: MIC, broth microdilution; format: cell-based; conditions: Acinetobacter baumannii; A. baumannii APV00473, ciprofloxacin-resistant
Experimental: (§1) MICs were determined by the broth microdilution method (the agar dilution method was used only for N. gonorrhoeae) according to CLSI guidelines.

[2] = tested on: A. baumannii ATCC 19606; assay: MIC, broth microdilution; format: cell-based; conditions: Acinetobacter baumannii, ATCC19606; A. baumannii ATCC 19606, ciprofloxacin-susceptible
Experimental: as §1

[3] = tested on: E. coli 4SI; assay: MIC, broth microdilution; format: cell-based; conditions: Escherichia coli, ciprofloxacin-resistant
Experimental: as §1

[4] = tested on: S. pyogenes APV00074; assay: MIC, broth microdilution; format: cell-based; conditions: Streptococcus pyogenes; S. pyogenes APV00074, ciprofloxacin-susceptible
Experimental: as §1

[5] = tested on: S. pyogenes APV00083; assay: MIC, broth microdilution; format: cell-based; conditions: Streptococcus pyogenes; S. pyogenes APV00083, ciprofloxacin-susceptible
Experimental: as §1

[6] = tested on: C. difficile ATCC 700057; assay: MIC, broth microdilution; format: cell-based, Clostridium difficile; conditions: Clostridioides difficile, ATCC700057
Experimental: MICs were determined by the broth microdilution method (the agar dilution method was used only for N. gonorrhoeae) according to CLSI guidelines. […] The MIC values of antibiotics used in clinical practice were interpreted according to the susceptibility interpretive criteria reported in the appropriate CLSI Tables (M100-S25, CLSI, 2015).

[7] = tested on: H. influenzae AcrA- mutant; assay: microbe, parasite or virus in culture; format: cell-based; conditions: Haemophilus influenzae
Method in brief: (§2)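 MICs against efflux-deficient mutant strains were determined by broth microdilution following CLSI guidelines.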

[8] = tested on: K. pneumoniae AcrAB- mutant; assay: microbe, parasite or virus in culture; format: cell-based; conditions: Klebsiella pneumoniae
Method in brief: as §2

[9] = tested on: S. aureus clinical isolates (n = 10); assay: microbe, parasite or virus in culture; format: cell-based, Staphylococcus aureus
Experimental: (§3) The bacterial reference strains used in this study were purchased from ATCC (American Type Culture Collection) via LGC Standards (Middlesex, UK). […] Clinical MDR isolates were provided by Aptuit, the IHMA Europa Sàrl repository (Epalinges, Switzerland) and the Statens Serum Institute (Copenhagen, Denmark).
as §1
(§4) The results obtained using clinical isolates are reported as MIC50 and MIC90 values.

[10] = tested on: C. difficile clinical isolates (n = 21); assay: MIC, multidrug-resistant clinical isolates; format: cell-based, Clostridium difficile; conditions: Clostridioides difficile, C. difficile clinical isolates (n = 21)
Experimental: as §3, §1, §4

[11] = tested on: E. coli clinical isolates (n = 36); assay: MIC, multidrug-resistant clinical isolates; format: cell-based, Escherichia coli; conditions: Escherichia coli, E. coli MDR clinical isolates (n = 36)
Experimental: as §3, §1, §4

[12] = tested on: A. baumannii clinical isolates (n = 10); assay: microbe, parasite or virus in culture; format: cell-based, Acinetobacter baumannii
Experimental: as §3, §1, §4

[13] = tested on: S. aureus ATCC 29213; assay: Minimal bactericidal concentration; format: cell-based, Staphylococcus aureus
Experimental: (§5) Minimal bactericidal concentrations (MBCs) were determined according to the procedure described by Knapp. Viable counts were performed after plates were incubated at 37°C for 24 hours. The MBC was defined as the lowest concentration that reduced the viability of the initial bacterial inoculum by ≥99.9%.

[14] = tested on: S. aureus BAA-1720; assay: Minimal bactericidal concentration; format: cell-based, Staphylococcus aureus
Experimental: as §5

[15] = tested on: E. coli ATCC 25922; assay: Time-kill assay; format: cell-based, Escherichia coli; conditions: 1× to 4× MIC, over 24 hours
Experimental: (§6) Time-kill experiments were performed according to the procedure reported by Knapp. […] A drug-free control was included in each experiment. The bacterial cultures were standardized to obtain an initial inoculum that ranged from 5×10^5 to 5×10^6 CFU/ml. The cultures were incubated at 37°C in a shaking bath. At 0, 2, 4, 8 and 24-hour intervals, viable counts were performed by spotting (in triplicate) 10 μl aliquots of suitable dilutions of the cultures onto Mueller-Hinton agar (MHA, Oxoid, Basingstoke, UK) plates. After incubation at 37°C for 24 hours, the bactericidal activity, namely, the ability to reduce the initial inoculum by 3 log10 CFU/ml, was assessed for each tested concentration over time.

[16] = tested on: S. aureus ATCC 29213; assay: Time-kill assay; format: cell-based, Staphylococcus aureus; conditions: 1× to 4× MIC (compound 1 also 8× and 16× MIC), over 24 hours
Experimental: as §6

[17] = tested on: E. coli ATCC 25922; assay: Post-antibiotic effect (PAE); format: cell-based, Escherichia coli; conditions: 1× and 4× MIC
Experimental: A drug-free control was included in each experiment. After being exposed to the drug for 1 hour, viable counts were conducted in triplicate by spotting aliquots (10 μl) of suitable dilutions onto MHA plates. The drugs were removed by diluting the bacterial cultures (1:1000) in Cation-Adjusted Mueller-Hinton Broth (CAMHB; Sigma-Aldrich). The diluted cultures were incubated in a shaking bath at 37°C. To monitor the ongoing suppression of bacterial growth over time (5 hours), aliquots from each broth culture were periodically collected, diluted and plated to perform subsequent viable counts (in triplicate).

[18] = tested on: CYP1A, CYP2B6, CYP2C8, CYP2C9, CYP2D6 and CYP3A4; assay: Inhibition of P450 isoenzymes; format: in vitro ADME; conditions: human, read-out: % inhibition of CYP450 isoenzymes other than CYP2C19
Excerpt: (§7) Inhibition of P450 isoenzymes.

[19] = target: CYP2C19 (Homo sapiens, UniProt P33261); assay: Inhibition of P450 isoenzymes; format: in vitro ADME
Excerpt: as §7

[20] = target: T1, hERG channel (Homo sapiens, UniProt Q12809); assay: hERG automated patch clamp assay; format: cell-based; conditions: CHO-K1, read-out: IC50 against hERG channels
T1 construct: expressed in transfected cells; host or cells: CHO-K1
Excerpt: hERG automated patch clamp assay. The human recombinant ERG CHO-K1 cell line was used in an automated patch clamp assay (qPatch system) to evaluate the hERG channel blockade potential of compounds 1 and 2 [36]. Concentration (log) response curves were fitted to a logistic equation to generate estimates of the 50% inhibitory value.

[21] = tested on: S. aureus ATCC 29213 and S. aureus BAA-1720; assay: MIC in the presence of 20% human serum
[22] = S. aureus MDR clinical isolates (n = 10)

T1 sequence (Q12809 whole entry): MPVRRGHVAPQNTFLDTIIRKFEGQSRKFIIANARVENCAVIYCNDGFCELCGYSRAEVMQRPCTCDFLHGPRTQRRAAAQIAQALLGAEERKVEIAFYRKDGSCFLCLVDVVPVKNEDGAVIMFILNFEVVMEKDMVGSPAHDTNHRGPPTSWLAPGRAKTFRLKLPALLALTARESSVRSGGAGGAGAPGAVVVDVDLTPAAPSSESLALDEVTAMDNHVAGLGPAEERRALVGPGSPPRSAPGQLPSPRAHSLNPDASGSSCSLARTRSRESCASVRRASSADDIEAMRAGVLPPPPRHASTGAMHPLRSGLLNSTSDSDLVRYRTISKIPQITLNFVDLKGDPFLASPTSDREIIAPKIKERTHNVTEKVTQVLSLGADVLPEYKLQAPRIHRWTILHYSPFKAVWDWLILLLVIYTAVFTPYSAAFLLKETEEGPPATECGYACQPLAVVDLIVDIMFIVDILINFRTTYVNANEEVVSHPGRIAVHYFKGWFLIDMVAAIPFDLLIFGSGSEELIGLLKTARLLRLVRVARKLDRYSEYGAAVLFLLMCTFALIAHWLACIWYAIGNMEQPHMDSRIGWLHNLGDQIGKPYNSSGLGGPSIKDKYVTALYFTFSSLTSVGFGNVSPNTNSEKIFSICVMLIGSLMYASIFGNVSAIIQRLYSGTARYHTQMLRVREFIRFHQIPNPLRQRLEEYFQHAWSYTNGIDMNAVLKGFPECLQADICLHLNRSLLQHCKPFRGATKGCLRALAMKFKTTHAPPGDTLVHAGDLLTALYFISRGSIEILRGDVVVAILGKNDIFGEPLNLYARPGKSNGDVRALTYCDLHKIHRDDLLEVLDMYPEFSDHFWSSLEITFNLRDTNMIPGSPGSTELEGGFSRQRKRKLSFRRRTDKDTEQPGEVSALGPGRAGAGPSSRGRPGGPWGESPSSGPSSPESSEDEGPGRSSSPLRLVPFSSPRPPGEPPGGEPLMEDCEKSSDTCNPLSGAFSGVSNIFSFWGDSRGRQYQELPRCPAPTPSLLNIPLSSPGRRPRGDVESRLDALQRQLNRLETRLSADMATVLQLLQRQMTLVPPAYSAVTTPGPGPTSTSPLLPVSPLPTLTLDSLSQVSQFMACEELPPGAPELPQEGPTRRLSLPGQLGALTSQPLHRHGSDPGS
CYP2C19, sequence (P33261 whole entry): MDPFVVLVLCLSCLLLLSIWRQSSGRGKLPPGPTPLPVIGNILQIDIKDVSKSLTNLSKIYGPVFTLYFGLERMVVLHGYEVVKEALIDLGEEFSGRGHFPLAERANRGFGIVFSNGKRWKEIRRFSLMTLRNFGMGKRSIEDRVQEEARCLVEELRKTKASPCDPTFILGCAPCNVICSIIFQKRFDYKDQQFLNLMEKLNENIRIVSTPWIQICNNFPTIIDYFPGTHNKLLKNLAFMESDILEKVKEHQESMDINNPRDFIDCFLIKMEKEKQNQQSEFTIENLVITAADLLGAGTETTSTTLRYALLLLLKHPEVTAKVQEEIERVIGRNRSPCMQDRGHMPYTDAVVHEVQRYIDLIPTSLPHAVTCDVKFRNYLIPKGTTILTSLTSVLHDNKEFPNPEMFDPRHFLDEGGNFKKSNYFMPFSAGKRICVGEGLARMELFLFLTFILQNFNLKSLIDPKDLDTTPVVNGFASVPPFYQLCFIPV

Cl.N#Cc1ccc2ccc(=O)n([C@H]3CC[C@H](NCc4cc5c(=O)oc6ccc(F)cc6c5[nH]4)CC3)c2c1 [Compound 2, 1-(trans-4-{[(8-fluoro-4-oxo-1,4-dihydro[1]benzopyrano[4,3-b]pyrrol-2-yl)methyl]amino}cyclohexyl)-2-oxo-1,2-dihydroquinoline-7-carbonitrile hydrochloride]
MIC [1]: 0.5 µg/mL | MIC [2]: 0.12 µg/mL | MIC [3]: 0.5 µg/mL | MIC [4]: ≤ 0.06 µg/mL | MIC [5]: ≤ 0.06 µg/mL | MIC [6]: 0.25 µg/mL | MIC [7]: ≤ 0.016 µg/mL | MIC [8]: ≤ 0.016 µg/mL | MIC50 [9, 22]: ≤ 0.06 µg/mL | MIC90 [9, 22]: ≤ 0.06 µg/mL | MIC range [9, 22]: ≤0.06 µg/mL | MIC ([9]; Staphylococcus aureus, MRSA, S. aureus APV0063, MRSA): ≤ 0.06 µg/mL | MIC ([9]; Staphylococcus aureus, MRSA, S. aureus APV0064, MRSA): ≤ 0.06 µg/mL | MIC ([9]; Staphylococcus aureus, MRSA, S. aureus APV0065, MRSA): ≤ 0.06 µg/mL | MIC ([9]; Staphylococcus aureus, S. aureus APV00045, M (macrolide resistance)): ≤ 0.06 µg/mL | MIC ([9]; Staphylococcus aureus, S. aureus APV0048, MLSi): ≤ 0.06 µg/mL | MIC ([9]; Staphylococcus aureus, S. aureus APV0049, MLSi): ≤ 0.06 µg/mL | MIC ([9]; Staphylococcus aureus, S. aureus APV0052, MLSc): ≤ 0.06 µg/mL | MIC ([9]; Staphylococcus aureus, S. aureus APV0053, MLSc): ≤ 0.06 µg/mL | MIC ([9]; Staphylococcus aureus, S. aureus APV00280, M (macrolide resistance)): ≤ 0.06 µg/mL | MIC ([9]; Staphylococcus aureus, S. aureus APV00281, M (macrolide resistance)): ≤ 0.06 µg/mL | MIC50 ([9]; Staphylococcus aureus, S. aureus MDR clinical isolates (n = 10), read-out: MIC50): ≤ 0.06 µg/mL | MIC90 ([9]; Staphylococcus aureus, S. aureus MDR clinical isolates (n = 10), read-out: MIC90): ≤ 0.06 µg/mL | MIC50 ([10]; read-out: MIC50): 0.12 µg/mL | MIC90 ([10]; read-out: MIC90): 0.25 µg/mL | MIC ([10]; read-out: MIC range): 0.06 to 0.25 µg/mL | MIC [11]: 0.5 to 4 µg/mL | MIC50 ([11]; read-out: MIC50): 1 µg/mL | MIC90 ([11]; read-out: MIC90): 2 µg/mL | MIC range [12]: ≤0.06 to 0.12 µg/mL | MIC50 ([12]; Acinetobacter baumannii): ≤ 0.06 µg/mL | MIC90 ([12]; Acinetobacter baumannii): 0.12 µg/mL | MBC/MIC [13]: 16 | MBC ([13]; Staphylococcus aureus, ATCC29213, ≥99.9% reduction of inoculum): 0.5 µg/mL | MBC/MIC ([13]; listed as compound 2): ≥ 16 | MBC/MIC [14]: 125 | MBC ([14]; Staphylococcus aureus, BAA1720, ≥99.9% reduction of inoculum): 2 µg/mL | MBC/MIC ([14]; listed as compound 2): ≥ 16 | Bactericidal activity in time-kill (reduction of 3 log10 CFU/ml) [15]: no bactericidal activity | Bactericidal activity in time-kill (reduction of 3 log10 CFU/ml) [16]: no bactericidal activity | PAE compared with ciprofloxacin [17]: approximately two-fold greater | inhibition at 10 µM [18]: ≤ 35% | inhibition at 10 µM [19]: 69% | IC50 [20]: > 100 µM | Change of MIC in the presence of 20% human serum [21]: not modified
